Experiments:
Format in all cases: cell-based, rat
endogenous GABAARs = experiment: all-optical assay of GABAAR antagonism in primary neuronal culture; conditions: ddHTP vs +HTP cells, 15 min, 15 uM GABA
Procedure: (§1) Cultured neuronal assays: Preparation of hippocampal cultures: Mixed glial and neuronal cultures were prepared from the hippocampus of postnatal day 0 to 1 Sprague-Dawley rat pups. Separate pools of dissociated cells were transfected via electroporation (LONZA, V4SP-3096) with plasmid constructs, and depending on assay directives, either plated individually or mixed with a different pool of electroporated cells after a 10 min recovery period. Cells were cultured on coverslips (Deckglaser) pre-treated with high molecular weight poly-D-lysine (Sigma, P7405; 0.05 mg/mL) in 24-well plates and maintained in NbActiv4 (BrainBits, Nb4-500) at 37 C, 5% CO2. Media was changed by half at DIV3 or 4 and then weekly thereafter; experiments were performed between DIV16 to DIV18.
Gabazine: Dissociated neurons were electroporated with constructs and cultured for 2 weeks. The assay was performed in the same BASE solution as described above, but with the addition of synaptic blockers CPP (NMDAR antagonist; Tocris) and NBQX (AMPAR antagonist; Abcam, ab120046) to isolate GABAR activity, and a small amount of GABA (GABAR agonist; Sigma) to ensure GABAR activity (=GABAR-BASE). […] Instead, a high dose of regular gabazine was used to completely silence any cells that may not have had realized full antagonism by the end of the assay. Imaging alignment, proof-reading and analysis were performed in a similar fashion to the AMPAR assay using MatLab.
It was next focused on blocking the GABAAR, a ubiquitous transducer of synaptic inhibition. […] The structure-activity literature of gabazine, a selective GABAAR antagonist, was explored. The core gabazine pharmacophore includes of a 3-amino, 6-phenoxy-pyridazine ring, with GABA embedded in the 2-position (2 butyric acid). Based on historical, low-potency predecessors of gabazine, a longer GABA moiety (2 pentanoic acid), and methyl substituents (e.g., 5-CH3) were explored (FIG. 2F). For each variant, the 6-phenoxy moiety was modified to make a gabazinealkyne module, which was click-conjugated to DART.2. Several variants were made, including gabazine.1^DART.2 (2 butyric acid, 5-H), gabazine.5DART.2 (2 pentanoic acid, 5-H), and gabazine.7DART.2 (2 pentanoic acid, 5-CH3). An all-optical assay of endogenous GABAARs in primary neuronal culture was then developed. […] Excitatory synapses were blocked, such that opto-stimulation with ChR2 became the only source of neural excitation.

[1] = target: T1, HaloTag Protein (HTP) on +HTP neurons (Rhodococcus rhodochrous, UniProt P0A3G2, A155T/A167V/A172T/A224E/C128F/C176G/D78G/E160K/E257K/H272N/K175M/K195N/L47V/L88M/N227D/S58T/T264A/Y273L/Y87F); experiment: biotin-HTL capture dose-response on +HTP cultured neurons; conditions: EC 50 (nM), concentration for half-maximal capture on +HTP neurons following 15 minutes of incubation
T1 construct: SSnlg signal peptide (residues 1-49 of mouse neuroligin-1) (N); ERXL (Kir2.1 trafficking and ER export signals); expressed in transfected cells; host or cells: primary rat hippocampal neurons, electroporated with plasmid
Procedure: as §1
For any given neuronal assay, coverslips were first washed briefly in a resting BASE solution containing (in mM): 4 KCl, 2 CaCl2), 2 MgCl2, 150 NaCl, 10 HEPES, 10 glucose, pH 7.4, before transfer to a glass-bottom, 24-well imaging plate (Cellvis, P24-1.5H—N). Live cell imaging was performed on an Olympus IX83 inverted fluorescent microscope (10× objective, […].) with LED illumination for GFP (Excitation=485 nm), TR (Ex=560 nm), Cy5/Alexa647 (Ex=640 nm) and Cy7/AlexaFluor750 (Cy7=740 nm) depending on the specific assay directives.
biotin-HTL: Dissociated neurons were electroporated with either the +HTP or ddHTP construct and cultured as described above. A dilution series for both the biotin-PEG12-HTL.1 and biotin-PEG12-HTL.2 compounds was made in BASE solution containing 1% BSA (Sigma A7904), representing 12 final concentrations (in uM) between 10 and 0.001. After a brief rinse in BASE+BSA to acclimate the live neurons to room temperature and avoid temperature effects to the binding kinetics, a single coverslip was incubated in one of the twelve dilutions for 15 min, washed twice in BASE+BSA, then incubated in a 1:500 dilution of Streptavidin-AlexaFluor488 (Invitrogen) for 15 min. The neurons were rinsed four times then transferred to a glass-bottom imaging plate containing BASE+BSA. Each coverslip was imaged in its entirety by combining several 10× images (TR at 10 ms; GFP at 100 ms) together using the Olympus CellSens software stitching algorithm. A dose-response curve was created from the individual coverslips using MatLab.
To enable direct quantification of capture efficiency, commercially available HTL (i.e., HTL.1) were conjugated to biotin via a flexible polyethylene glycol linker of moderate length (PEG12), to mimic the longer (PEG36) linker typically used in an RxDART. Capture kinetics were characterized on cultured neurons expressing HTP on their surface [HTPNLG(432-648), as in, to model the cellular microenvironment of interest. Dose-response curves were performed by incubating neuronal coverslips with a given ligand for 15 min, followed by washing, fluorescent labeling of biotin, and quantification of capture. […] Thus, it was reasoned that improving HTL50 would widen the DW for any Rx cargo.

endogenous GABAAR = experiment: all-optical assay of GABAAR positive allosteric modulation in primary neuronal culture
Procedure: as §1
Diazepam/Flumazenil: Dissociated neurons were electroporated with constructs and cultured for 2 weeks. The assay was performed in a modified GABAR-BASE, with an increased KCl concentration to enhance neuronal excitability and a lowered GABA level for a baseline. Again, a DRUG plate and three DoseGroups were used as described above for dosing, but no final WASH. […] Imaging alignment, proof-reading and analysis were performed in a similar fashion to the GABAR assay using MatLab.
Next it was sought to extend DART to allosteric modulators. The allosteric binding site of the GABAAR, known to bind several drugs, with effects ranging from negative to positive allosteric modulation was first analyzed. Diazepam represents the prototypic PAM at this site, and is the most clinically significant of the class. Thus, a diazepam analog was synthesized with a short alkyne attached to the amide of the diazepam core; an attachment site known to tolerate substituents and thought from structural inspection of the GABAAR-bound diazepam pose to allow linker access to free solution. Click chemistry was used to assemble the full-length diazepam.1DART.2 and leveraged an all-optical assay of endogenous GABAARs in primary neuronal culture, with ChR2 and GCaMP6s in the same cell.

T1 sequence (P0A3G2 other isoform, or with tags, fused parts or gaps with the stated changes): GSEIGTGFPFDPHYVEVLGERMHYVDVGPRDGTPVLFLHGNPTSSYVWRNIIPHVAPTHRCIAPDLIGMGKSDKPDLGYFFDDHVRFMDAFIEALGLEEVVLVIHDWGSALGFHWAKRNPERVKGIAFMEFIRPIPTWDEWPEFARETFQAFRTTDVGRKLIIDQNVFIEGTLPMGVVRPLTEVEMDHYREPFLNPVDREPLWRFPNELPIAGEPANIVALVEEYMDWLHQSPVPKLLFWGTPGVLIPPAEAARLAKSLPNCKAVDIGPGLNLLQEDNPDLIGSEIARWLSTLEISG

Structure (SMILES)	EC50 [1]	also measured
COc1cc(CCCCl)ccc1CCOCCNC(=O)c1ccc(CNC(=O)CCOCCOCCOCCOCCOCCOCCOCCOCCOCCOCCOCCOCCOCCOCCOCCOCCOCCOCCOCCOCCOCCOCCOCCOCCOCCOCCOCCOCCOCCOCCOCCOCCOCCOCCOCCOCCn2cc(COCCOCCOCCOCCOCCOCCOCCCCCCOc3ccc(-c4ccc(=N)n(CCCCC(=O)O)n4)cc3)nn2)cc1 [gabazine.5^DART.2]		DW (t=15 m) (endogenous GABAARs): 1,500
COc1cc(CCCCl)ccc1CC(=O)NCCNC(=O)c1ccc(CNC(=O)CCOCCOCCOCCOCCOCCOCCOCCOCCOCCOCCOCCOCCNC(=O)CCCC[C@@H]2SC[C@@H]3NC(=O)N[C@@H]32)cc1	20000 nM	
COc1cc(/C=C/CCCl)ccc1CCOCCNC(=O)c1ccc(CNC(=O)CCOCCOCCOCCOCCOCCOCCOCCOCCOCCOCCOCCOCCNC(=O)CCCC[C@@H]2SC[C@@H]3NC(=O)N[C@@H]32)cc1	20 nM	
O=C(CCCC[C@@H]1SC[C@@H]2NC(=O)N[C@@H]21)NCCOCCOCCOCCOCCOCCOCCOCCOCCOCCOCCOCCOCCC(=O)NCCOCCOCCCCCCCl	1000 nM	
COc1cc(CCCCCl)ccc1CCOCCNC(=O)c1ccc(CNC(=O)CCOCCOCCOCCOCCOCCOCCOCCOCCOCCOCCOCCOCCNC(=O)CCCC[C@@H]2SC[C@@H]3NC(=O)N[C@@H]32)cc1	30 nM	
COc1cc(CCCCl)ccc1CCOCCNC(=O)c1ccc(CNC(=O)CCOCCOCCOCCOCCOCCOCCOCCOCCOCCOCCOCCOCCNC(=O)CCCC[C@@H]2SC[C@@H]3NC(=O)N[C@@H]32)cc1	10 nM	
CCOC(=O)c1ncn2c1CN(C)C(=O)c1cc(F)ccc1-2 [flumazenil, reference compound]		GABAAR receptor modulation (endogenous GABAAR): no receptor modulation
COc1cc(CCCCl)ccc1C(=O)NCCCNC(=O)c1ccc(CNC(=O)CCOCCOCCOCCOCCOCCOCCOCCOCCOCCOCCOCCOCCNC(=O)CCCC[C@@H]2SC[C@@H]3NC(=O)N[C@@H]32)cc1 [drawing 135]	200 nM	
COc1cc(CCCCCCl)ccc1CCOCCNC(=O)c1ccc(CNC(=O)CCOCCOCCOCCOCCOCCOCCOCCOCCOCCOCCOCCOCCNC(=O)CCCC[C@@H]2SC[C@@H]3NC(=O)N[C@@H]32)cc1	4000 nM	
COc1cc(CCCCl)ccc1OCCCCNC(=O)c1ccc(CNC(=O)CCOCCOCCOCCOCCOCCOCCOCCOCCOCCOCCOCCOCCNC(=O)CCCC[C@@H]2SC[C@@H]3NC(=O)N[C@@H]32)cc1	50 nM	
O=C(CCCC[C@@H]1SC[C@@H]2NC(=O)N[C@@H]21)NCCOCCOCCOCCOCCOCCOCCOCCOCCOCCOCCOCCOCCC(=O)NCc1ccc(C(=O)NCCCCOc2ccc(CCCCCl)cc2Cl)cc1	100 nM	
O=C(CCCC[C@H]1SC[C@H]2NC(=O)N[C@H]21)NCCOCCOCCOCCOCCOCCOCCOCCOCCOCCOCCOCCOCCC(=O)NCc1ccc(C(=O)NCCCCOc2ccc(CCCCCl)cc2)cc1	110 nM	
COc1cc(CCCCl)ccc1C(=O)NCCCNC(=O)c1ccc(CNC(=O)CCOCCOCCOCCOCCOCCOCCOCCOCCOCCOCCOCCOCCNC(=O)CCCC[C@@H]2SC[C@@H]3NC(=O)N[C@@H]32)cc1 [drawing 133]	200 nM	
O=C(CCCC[C@H]1SC[C@H]2NC(=O)N[C@H]21)NCCOCCOCCOCCOCCOCCOCCOCCOCCOCCOCCOCCOCCC(=O)NCc1ccc(C(=O)NCCCCOc2ccc(CCCCCl)cc2F)cc1	45 nM	
O=C(CCCC[C@@H]1SC[C@@H]2NC(=O)N[C@@H]21)NCCOCCOCCOCCOCCOCCOCCOCCOCCOCCOCCOCCOCCC(=O)NCc1ccc(C(=O)NCCCCOc2ccc(CCCCCl)cc2O)cc1	30 nM	
CN1C(=O)CN=C(c2ccccc2)c2cc(Cl)ccc21 [diazepam, reference compound]		effect on +HTP vs ddHTP cells (endogenous GABAAR; traditional (non-DART) version): equally affected
COc1cc(CCCCl)ccc1C(=O)NCCCNC(=O)c1ccc(CNC(=O)CCOCCOCCOCCOCCOCCOCCOCCOCCOCCOCCOCCOCCNC(=O)CCCC[C@@H]2SC[C@@H]3NC(=O)N[C@@H]32)cc1 [drawing 134]	280 nM	
COc1c(/C=C\CCCl)cccc1OCCCCNC(=O)c1ccc(CNC(=O)CCOCCOCCOCCOCCOCCOCCOCCOCCOCCOCCOCCOCCNC(=O)CCCC[C@@H]2SC[C@@H]3NC(=O)N[C@@H]32)cc1	55 nM	
O=C(CCCC[C@@H]1SC[C@@H]2NC(=O)N[C@@H]21)NCCOCCOCCOCCOCCOCCOCCOCCOCCOCCOCCOCCOCCC(=O)NCc1ccc(C(=O)NCCCCOc2ccc(CCCCCl)cc2OC(F)(F)F)cc1	1500 nM	
COc1cc(CCCCBr)ccc1OCCCCNC(=O)c1ccc(CNC(=O)CCOCCOCCOCCOCCOCCOCCOCCOCCOCCOCCOCCOCCNC(=O)CCCC[C@@H]2SC[C@@H]3NC(=O)N[C@@H]32)cc1	30 nM	
Nc1cc(CCCCCl)ccc1OCCCCNC(=O)c1ccc(CNC(=O)CCOCCOCCOCCOCCOCCOCCOCCOCCOCCOCCOCCOCCNC(=O)CCCC[C@H]2SC[C@H]3NC(=O)N[C@H]32)cc1	70 nM	
COc1cc(CCCCI)ccc1OCCCCNC(=O)c1ccc(CNC(=O)CCOCCOCCOCCOCCOCCOCCOCCOCCOCCOCCOCCOCCNC(=O)CCCC[C@@H]2SC[C@@H]3NC(=O)N[C@@H]32)cc1	30 nM	
O=C(CCCC[C@@H]1SC[C@@H]2NC(=O)N[C@@H]21)NCCOCCOCCOCCOCCOCCOCCOCCOCCOCCOCCOCCOCCC(=O)NCc1ccc(C(=O)NCCOCCOCCCCCCCl)cc1	150 nM	
CCOc1cc(CCCCCl)ccc1OCCCCNC(=O)c1ccc(CNC(=O)CCOCCOCCOCCOCCOCCOCCOCCOCCOCCOCCOCCOCCNC(=O)CCCC[C@@H]2SC[C@@H]3NC(=O)N[C@@H]32)cc1	70 nM	
